Test results reported in patent US11236081B2, “Crystalline salts of corydalmine” (priority 2018, dated 2022).
Where “and” joins values, the source holds several entries; their conditions need not be identical. Identical values can stand only once.

Tests used:
[1] = Pharmacokinetic study: plasma concentration and plasma PK parameters after IV/PO dosing (LC-MS/MS, WinNonlin); type: in vivo, Male SD Rat; conditions: male SD rat, vehicle 20% HP-β-CD in water (POA, freebase) or water (salts); for F / F, Mean: PO 10 mg/kg (equal to freebase) vs IV 3 mg/kg freebase; for F / concentration in plasma / Tmax / AUCInf / AUClast / AUClast/D / AUC—% Extrap_obs / Cmax / MRTInf_obs / T1/2: individual rats; for F, Mean / concentration in plasma, Mean / AUCInf, Mean / AUClast, Mean / AUClast/D, Mean / AUC—% Extrap_obs, Mean / Cmax, Mean / MRTInf_obs, Mean / T1/2, Mean / Tmax, Mean: mean n=3; for concentration in plasma / concentration in plasma, Mean / Tmax / AUCInf / AUClast / AUClast/D / AUC—% Extrap_obs / Cmax / MRTInf_obs / T1/2 / AUCInf, Mean / AUClast, Mean / AUClast/D, Mean / AUC—% Extrap_obs, Mean / Cmax, Mean / MRTInf_obs, Mean / T1/2, Mean / Tmax, Mean: PO 10 mg/kg (equal to freebase); for Tmax / AUCInf / AUClast / AUClast/D / AUC—% Extrap_obs / Cmax / MRTInf_obs / T1/2 / AUCInf, Mean / AUClast, Mean / AUClast/D, Mean / AUC—% Extrap_obs, Mean / Cmax, Mean / MRTInf_obs, Mean / T1/2, Mean / Tmax, Mean: plasma
Source text: Pharmacokinetic and Brain Penetration Study
Dose formulation processing during dosing: The dose formulations will be kept at room temperature.
Concentrations of Test Article in the plasma samples will be analyzed using a LC-MS/MS method.
WinNonlin (Phoenix™, version 6.1) or other similar software will be used for pharmacokinetic calculations. The following pharmacokinetic parameters will be calculated, whenever possible from the plasma concentration versus time data:
IV administration: T1/2, C0, AUClast, AUCinf, MRTinf, Cl, Vss, Number of Points for Regression.
PO administration: T1/2, Cmax, Tmax, MRTinf, AUCinf, AUClast, F %, Number of Points for Regression.
The pharmacokinetic data will be described using descriptive statistics such as mean, standard deviation.

[2] = Solubility studies in water at 2 hours; type: physicochemical
[3] = Dynamic vapor sorption (DVS), hygroscopicity at 25° C.; type: physicochemical; conditions: for hygroscopicity (DVS) / water absorbed in DVS: 25° C.; for water absorbed in DVS: at 80% RH
Method: Dynamic Vapor Sorption (DVS)
DVS was determined using DVS Intrinsic (SMS, UK). Transfer about 20 to 50 mg of the compound into a SMS dynamic vapor sorption model DVS and record the weight change with respect to a varying atmospheric humidity at 25° C.

Q: For `COc1cc2c(cc1OC)[C@@H]1Cc3ccc(O)c(OC)c3CN1CC2.Cl` [TLZ-16 HCl], which F ([1]; listed as TLZ-16 HC1) is on record?
A: 35.9% and 20.7% and 24.7%

Q: And the “F, Mean” value [1]?
A: 27.1%

Q: And the concentration in plasma ([1]; 0 h)?
A: BLOQ (BLOQ = below limit of quantitation (0.2 ng/mL))

Q: And the concentration in plasma ([1]; 0.25 h, 10 mg/kg)?
A: 236 ng/mL and 239 ng/mL and 385 ng/mL

Q: And the “concentration in plasma, Mean” value ([1]; 0.25 h)?
A: 287 ng/mL

Q: And the concentration in plasma ([1]; 0.5 h, 10 mg/kg)?
A: 225 ng/mL and 217 ng/mL and 356 ng/mL

Q: What about the “concentration in plasma, Mean” value ([1]; 0.5 h) of the same compound?
A: 266 ng/mL

Q: And the concentration in plasma ([1]; 1 h, 10 mg/kg)?
A: 130 ng/mL and 149 ng/mL and 173 ng/mL

Q: What about the “concentration in plasma, Mean” value ([1]; 1 h) of the same compound?
A: 151 ng/mL

Q: And the concentration in plasma ([1]; 2 h, 10 mg/kg)?
A: 135 ng/mL and 129 ng/mL and 115 ng/mL

Q: What about the “concentration in plasma, Mean” value ([1]; 2 h) of the same compound?
A: 126 ng/mL

Q: And the concentration in plasma ([1]; 4 h, 10 mg/kg)?
A: 109 ng/mL and 60.3 ng/mL and 79.2 ng/mL

Q: And the “concentration in plasma, Mean” value ([1]; 4 h)?
A: 82.8 ng/mL

Q: And the concentration in plasma ([1]; 8 h, 10 mg/kg)?
A: 44.3 ng/mL and 15.6 ng/mL and 14.1 ng/mL

Q: What about the “concentration in plasma, Mean” value ([1]; 8 h) of the same compound?
A: 24.7 ng/mL

Q: And the concentration in plasma ([1]; 24 h, 10 mg/kg)?
A: 0.356 ng/mL and BLOQ (BLOQ = below limit of quantitation (0.2 ng/mL)) (2×)

Q: And the Tmax [1]?
A: 0.25 h

Q: What about the AUCInf ([1]; listed as TLZ-16 HC1, 10 mg/kg) of the same compound?
A: 1217 ng·h/mL and 703 ng·h/mL and 837 ng·h/mL

Q: And the AUClast ([1]; listed as TLZ-16 HC1, 10 mg/kg)?
A: 1216 ng·h/mL and 658 ng·h/mL and 798 ng·h/mL

Q: What about the AUClast/D ([1]; listed as TLZ-16 HC1, 10 mg/kg) of the same compound?
A: 122 kg·ng·h/mL/mg and 65.8 kg·ng·h/mL/mg and 79.8 kg·ng·h/mL/mg

Q: What about the “AUC—% Extrap_obs” value ([1]; listed as TLZ-16 HC1, 10 mg/kg) of the same compound?
A: 0.101% and 6.34% and 4.66%

Q: What about the Cmax ([1]; listed as TLZ-16 HC1, 10 mg/kg) of the same compound?
A: 236 ng/mL and 239 ng/mL and 385 ng/mL

Q: What about the MRTInf_obs ([1]; listed as TLZ-16 HC1, 10 mg/kg) of the same compound?
A: 4.53 h and 2.86 h and 2.58 h

Q: What about the T1/2 ([1]; listed as TLZ-16 HC1, 10 mg/kg) of the same compound?
A: 2.39 h and 1.98 h and 1.92 h

Q: And the “AUCInf, Mean” value [1]?
A: 919 ng·h/mL

Q: And the “AUClast, Mean” value [1]?
A: 891 ng·h/mL

Q: And the AUClast/D, Mean [1]?
A: 89 kg·ng·h/mL/mg

Q: What about the “AUC—% Extrap_obs, Mean” value [1] of the same compound?
A: 3.70%

Q: What about the “Cmax, Mean” value [1] of the same compound?
A: 287 ng/mL

Q: And the “MRTInf_obs, Mean” value [1]?
A: 3.32 h

Q: What about the “T1/2, Mean” value [1] of the same compound?
A: 2.09 h

Q: What about the “Tmax, Mean” value [1] of the same compound?
A: 0.250 h

Q: What about the solubility in water [2] of the same compound?
A: approximately 19.1 mg/mL

Q: What about the “hygroscopicity (DVS)” value [3] of the same compound?
A: slightly hygroscopic

Q: What about the “solid form after DVS test” value [3] of the same compound?
A: does not change

Q: And the “water absorbed in DVS” value [3]?
A: about 0.57%

Q: Which results are given for `COc1cc2c(cc1OC)[C@@H]1Cc3ccc(O)c(OC)c3CN1CC2.O=C(O)/C=C\C(=O)O` [TLZ-16 maleate]?
A: F [1]: 21.7% and 33.4% and 21.3%; F, Mean [1]: 25.5%; concentration in plasma ([1]; 0 h): BLOQ (BLOQ = below limit of quantitation (0.2 ng/mL)); concentration in plasma ([1]; 0.25 h, 10 mg/kg): 138 ng/mL and 257 ng/mL and 438 ng/mL; concentration in plasma, Mean ([1]; 0.25 h): 278 ng/mL; concentration in plasma ([1]; 0.5 h, 10 mg/kg): 132 ng/mL and 290 ng/mL and 287 ng/mL; concentration in plasma, Mean ([1]; 0.5 h): 236 ng/mL; concentration in plasma ([1]; 1 h, 10 mg/kg): 118 ng/mL and 206 ng/mL and 176 ng/mL; concentration in plasma, Mean ([1]; 1 h): 167 ng/mL; concentration in plasma ([1]; 2 h, 10 mg/kg): 106 ng/mL and 175 ng/mL and 55.8 ng/mL; concentration in plasma, Mean ([1]; 2 h): 112 ng/mL; concentration in plasma ([1]; 4 h, 10 mg/kg): 104 ng/mL and 116 ng/mL and 69.3 ng/mL; concentration in plasma, Mean ([1]; 4 h): 96.4 ng/mL; concentration in plasma ([1]; 8 h, 10 mg/kg): 40.8 ng/mL and 34.5 ng/mL and 34.1 ng/mL; concentration in plasma, Mean ([1]; 8 h): 36.5 ng/mL; concentration in plasma ([1]; 24 h): BLOQ (BLOQ = below limit of quantitation (0.2 ng/mL)); AUCInf ([1]; 10 mg/kg): 965 ng·h/mL and 1132 ng·h/mL and 898 ng·h/mL; AUClast ([1]; 10 mg/kg): 725 ng·h/mL and 1007 ng·h/mL and 709 ng·h/mL; AUClast/D ([1]; 10 mg/kg): 72.5 kg·ng·h/mL/mg and 101 kg·ng·h/mL/mg and 70.9 kg·ng·h/mL/mg; AUC—% Extrap_obs ([1]; 10 mg/kg): 24.9% and 11.1% and 21.0%; Cmax ([1]; 10 mg/kg): 138 ng/mL and 290 ng/mL and 438 ng/mL; MRTInf_obs ([1]; 10 mg/kg): 5.88 h and 3.67 h and 4.80 h; T1/2 ([1]; 10 mg/kg): 4.08 h and 2.52 h and 3.83 h; Tmax ([1]; 10 mg/kg): 0.25 h (2×) and 0.5 h; AUCInf, Mean [1]: 998 ng·h/mL; AUClast, Mean [1]: 814 ng·h/mL; AUClast/D, Mean [1]: 81 kg·ng·h/mL/mg; AUC—% Extrap_obs, Mean [1]: 19.0%; Cmax, Mean [1]: 289 ng/mL; MRTInf_obs, Mean [1]: 4.78 h; T1/2, Mean [1]: 3.48 h; Tmax, Mean [1]: 0.333 h; solubility in water [2]: approximately 11.0 mg/mL; hygroscopicity (DVS) [3]: slightly hygroscopic; solid form after DVS test [3]: does not change; water absorbed in DVS [3]: about 0.085 wt %
